Assay results from ChEMBL document CHEMBL5325404, “Identification of inhibitors as drug candidates against Chagas disease” (Eur J Med Chem, 2023).
pIC50: −log10 of the molar value.

What was measured:
Trypanosoma cruzi = assay: Antitrypanosomal activity against Trypanosoma cruzi Y trypomastigotes infected in monkey LLC-MK2 cells assessed as parasite growth inhibition incubated for 24 hrs by resazurin dye based microplate reader assay; type: functional, organism-based; details: for pIC50: Trypanosoma cruzi, Y, LLC-MK2, 24 h, read-out: IC50
[1] = Selectivity index, ratio of CC50 for cytotoxicity against mouse NCTC clone 929 cells to IC50 for antitrypanosomal activity against Trypanosoma cruzi Y trypomastigotes infected in monkey LLC-MK2 cells assessed as parasite growth inhibition; type: toxicity, cell-based; details: read-out: Ratio CC50/IC50
[2] = Cytotoxicity against mouse NCTC clone 929 cells incubated for 48 hrs by MTT spectrophotometric assay; type: toxicity, cell-based; details: NCTC clone 929 (L929) cells

| SMILES | pIC50 (Trypanosoma cruzi) | selectivity ratio [1] | CC50 at 48 h [2] | IC50 (Trypanosoma cruzi) |
| --- | --- | --- | --- | --- |
| CC[C@]1(c2ccccc2)NC(=O)N(NC(=O)CSc2nc(C)nc3sc(C)c(C)c23)C1=O | 4.87 | > 14.7 | > 200 µM |  |
| Cc1cccc(NC(=O)[C@@H](Cc2ccccc2)NS(=O)(=O)c2cccc3nsnc23)c1 | 4.64 | 3.5 | 79.5 µM |  |
| Cc1cc(C)cc(Nc2nc(C)cc3nn(CC(=O)Nc4ccc(C)c(F)c4)c(=O)n23)c1 |  |  |  | Not Active |
| CC(=O)c1cn(CC(=O)NCCCc2nnc3ccccn23)c2ccccc12 |  |  |  | Not Active |
| Cc1nn(C)c2[nH]c(=O)c(CCC(=O)NC[C@@H]3CCCc4ccccc43)c(C)c12 |  |  |  | Not Active |
| CC(C)Nc1cc(C(=O)c2cc(F)ccc2O)cn2c(=O)c3ccccc3nc12 |  |  |  | Not Active |
| CCN(CCO)c1nc(Nc2cc(OC)ccc2OC)c2cnn(-c3ccccc3)c2n1 |  |  |  | Not Active |
| Cc1ccc(-c2noc(C(=O)NCCNC(=O)COc3ccc(Cl)c(C)c3)n2)cc1 |  |  |  | Not Active |
| CCOc1ccccc1C(=O)NCC(=O)N1CCC[C@@H](c2nnc3n2CCCCC3)C1 |  |  |  | Not Active |
| COc1ccccc1OCC#CCNS(=O)(=O)c1ccc(Cl)c(Cl)c1 | 4.49 | 4 | 128 µM |  |
| Cc1ccc2nc(NC(=O)[C@H]3CCCN3S(=O)(=O)c3cccc4nsnc34)sc2c1 |  |  |  | Not Active |
| Cc1ccccc1Nc1nc(N(C)CCO)nc2c1cnn2-c1ccccc1 | 4.89 | 2 | 25 µM |  |
| Cc1ccc(C[C@H](C)NC(=O)Nc2ccc(C)c(-n3cnnn3)c2)s1 |  |  |  | Not Active |
| Cc1nn(C)c2[nH]c(=O)c(/C=C/C(=O)NCCc3ccc(Cl)cc3Cl)c(C)c12 |  |  |  | Not Active |
| Cc1ccc(-n2cnnn2)cc1NC(=O)N[C@H](C)c1cccc(Cl)c1 |  |  |  | Not Active |
| O=C(Cn1ccnc1[N+](=O)[O-])NCc1ccccc1 [BENZNIDAZOLE] | 4.74 | > 10.7 | > 200 µM |  |
| Cc1cc(C)c2cc(C(=O)Nc3ccccc3-n3cncn3)[nH]c2c1 | 5.05 | 8.9 | 80.9 µM |  |

| SMILES | pIC50 (Trypanosoma cruzi) | selectivity ratio [1] | CC50 at 48 h [2] | IC50 (Trypanosoma cruzi) |
| --- | --- | --- | --- | --- |
| CCCOCc1ccccc1CNC(=O)Nc1cnc2c(c1)c(C)nn2C | 4.16 | 1 | 66.9 µM |  |
| Cc1ccc(-n2nnnc2S[C@@H](C)C(=O)NC(=O)Nc2ccccc2)cc1 |  |  |  | Not Active |
| COc1ccc(OC)c(Nc2nc(NCCCO)nc3c2cnn3-c2ccccc2)c1 | 5.00 | > 19.8 | > 200 µM |  |
| OCCCNc1nc(Nc2ccccc2)c2cnn(-c3ccccc3)c2n1 | 5.15 | 12 | 85.2 µM |  |
| Cn1nnc2cc(C(=O)Nc3nccn3Cc3ccccc3Cl)ccc21 |  |  |  | Not Active |
| CCOc1ccc(CCNC(=O)C2CCN(c3ncnc4onc(C)c34)CC2)cc1 |  |  |  | Not Active |
| Cc1ccc(NC(=O)Cn2nc3cc(C)nc(Nc4ccc(F)c(C)c4)n3c2=O)cc1 |  |  |  | Not Active |
| Cc1cc2nn(CC(=O)Nc3cc(F)cc(F)c3)c(=O)n2c(Nc2ccc(C)c(F)c2)n1 |  |  |  | Not Active |
| Cc1ccc(NC(=O)NC(=O)[C@@H](C)Sc2nncn2Cc2ccco2)c(C)c1 |  |  |  | Not Active |
| O=C(Nc1ccc(F)cc1F)[C@H](NS(=O)(=O)c1cccc2nsnc12)c1ccccc1 | 4.26 | > 3.6 | > 200 µM |  |
| Cc1ccc(-n2nnnc2S[C@@H](C)C(=O)NCC(=O)Nc2ccc(F)c(F)c2F)c(C)c1 | 4.42 | 1.4 | 52.8 µM |  |
| Cc1cn([C@@H](C)c2ccccc2)nc1NC(=O)CCc1nc(C(C)C)no1 |  |  |  | Not Active |
| COc1ccc(C)cc1NC(=O)Cn1nc2cc(C)nc(Nc3ccc(F)cc3)n2c1=O |  |  |  | Not Active |
| Cc1cc(C)c2cc(C(=O)NCc3ccccc3Cn3cncn3)[nH]c2c1 |  |  |  | Not Active |
| COc1ccc2nc(NC(=O)CN(C)S(=O)(=O)c3cccc4nsnc34)sc2c1 |  |  |  | Not Active |
| OCCCNc1nc(Nc2ccc(F)cc2)c2cnn(-c3ccccc3)c2n1 | 4.83 | 2.6 | 39.2 µM |  |
